Test system: C57BL/6J mice
Test: Oral glucose tolerance test
Assay type: in vivo
Conditions: male C57BL/6J mice, fasted overnight, oral gavage 10 mg/kg, glucose 3 g/kg orally 30 minutes after compound, area under the curve of blood glucose level relative to control group
Description: Commercially available mice (C57BL/6J mice; male; 8 to 12 weeks old when used; distributed by Charles River Laboratories Japan, Inc.) were used.
After acclimatization with freely feeding (FR-2, Funabashi Farm Co., Ltd.) for one week or more, the mice were fasted overnight and then used for the test. A 0.5% methylcellulose (Wako Pure Chemical Industries, Ltd.) solution (0.5% MC) containing a test compound at a concentration of 1 mg/ml and a mixed solution (PG:Tween) of propylene glycol (80 v/v %, Nacalai Tesque, Inc.) and Tween 80 (20 v/v %, Nacalai Tesque, Inc.) containing a test compound at a concentration of 2 mg/ml were prepared for administration to the mice. The prepared solution was administered by oral gavage to four or five mice in each group at a dose of 10 mg/kg as the test compound. For a control group, a 0.5% methylcellulose solution (dose: 10 ml/kg) or a mixed solution of propylene glycol and Tween 80 (dose: 5 ml/kg) was orally administered to mice. An oral glucose tolerance test was carried out by administering a glucose solution (Otsuka Glucose Solution 50%; Otsuka Pharmaceutical Factory, Inc.) orally at a dose of 3 g/kg to the mice 30 minutes after administration of the test compound.
Blood was collected from the tail vein of each mouse immediately before administration of the test compound (T0), […] after administration of the test compound (T1), and 30 minutes (T2) and 90 minutes (T3) after oral glucose loading. The blood glucose level was measured using a blood glucose level measuring apparatus (ACCU-CHEK Aviva; Roche Diagnostics, K.K.). The blood glucose level T1 was analyzed as a value obtained 30 minutes after administration of the compound and immediately before glucose loading. According to the following formula, the area under the curve of blood glucose level was calculated, and thereafter, the blood glucose lowering rate (%) was calculated as a value relative to the control group. The area under the curve of blood glucose level=[(blood glucose level T0+blood glucose level T1)×30]÷2+[(blood glucose level T1+blood glucose level T2)×30]÷2+[(blood glucose level T2+blood glucose level T3)×60]÷2 Blood glucose lowering rate(%)=[1−(the area under the curve of blood glucose level for the test compound group/the area under the curve of blood glucose level for the control group)]×100

Row | SMILES | Blood glucose lowering rate (%) (solvent PG:Tween) | Blood glucose lowering rate (%) (solvent 0.5% MC)
1 | COc1ccc(-c2cccc(C(=O)O)n2)cc1C1C2=C(CC(C)(C)CC2=O)OC2=C1C(=O)CC(C)(C)C2 [Example 1, 6-[4-Methoxy-3-(3,3,6,6-tetramethyl-1,8-dioxo-2,3,4,5,6,7,8,9-octahydro-1H-xanthen-9-yl)phenyl]pyridine-2-carboxylic acid] | 39 | –
2 | COc1ccc(-c2cccc(C(=O)O)n2)c(C)c1C1C2=C(CC(C)(C)CC2=O)OC2=C1C(=O)CC(C)(C)C2 [Example 4, 6-[4-Methoxy-2-methyl-3-(3,3,6,6-tetramethyl-1,8-dioxo-2,3,4,5,6,7,8,9-octahydro-1H-xanthen-9-yl)phenyl]pyridine-2-carboxylic acid] | 60 | –
3 | COc1ccc(-c2cccc(C(=O)NS(C)(=O)=O)n2)cc1C1C2=C(CC(C)(C)CC2=O)OC2=C1C(=O)CC(C)(C)C2 [Example 5, 6-[4-Methoxy-3-(3,3,6,6-tetramethyl-1,8-dioxo-2,3,4,5,6,7,8,9-octahydro-1H-xanthen-9-yl)phenyl]-N-(methylsulfonyl)pyridine-2-carboxamide] | 43 | –
4 | COc1ccc(-c2cccc(-c3noc(=O)[nH]3)n2)cc1C1C2=C(CC(C)(C)CC2=O)OC2=C1C(=O)CC(C)(C)C2 [Example 8, 9-{2-Methoxy-5-[6-(5-oxo-4,5-dihydro-1,2,4-oxadiazol-3-yl)pyridin-2-yl]phenyl}-3,3,6,6-tetramethyl-3,4,5,6,7,9-hexahydro-1H-xanthene-1,8(2H)-dione] | 38 | –
5 | COc1ccc(-c2cccc(C(=O)NS(C)(=O)=O)n2)c(C)c1C1C2=C(CC(C)(C)CC2=O)OC2=C1C(=O)CC(C)(C)C2 [Example 9, 6-[4-Methoxy-2-methyl-3-(3,3,6,6-tetramethyl-1,8-dioxo-2,3,4,5,6,7,8,9-octahydro-1H-xanthen-9-yl)phenyl]-N-(methylsulfonyl)pyridine-2-carboxamide] | 42 | –
6 | COc1ccc(-c2ccc(C)c(C(=O)O)n2)c(C)c1C1C2=C(CC(C)(C)CC2=O)OC2=C1C(=O)CC(C)(C)C2 [Example 10, 6-[4-Methoxy-2-methyl-3-(3,3,6,6-tetramethyl-1,8-dioxo-2,3,4,5,6,7,8,9-octahydro-1H-xanthen-9-yl)phenyl]-3-methylpyridine-2-carboxylic acid] | 55 | –
7 | COc1ccc(-c2ccc(O)c(C(=O)O)n2)c(C)c1C1C2=C(CC(C)(C)CC2=O)OC2=C1C(=O)CC(C)(C)C2 [Example 11, 3-Hydroxy-6-[4-methoxy-2-methyl-3-(3,3,6,6-tetramethyl-1,8-dioxo-2,3,4,5,6,7,8,9-octahydro-1H-xanthen-9-yl)phenyl]pyridine-2-carboxylic acid] | 42 | –
8 | C#Cc1ccc(-c2ccc(OC)c(C3C4=C(CC(C)(C)CC4=O)OC4=C3C(=O)CC(C)(C)C4)c2C)nc1C(=O)O [Example 12, 3-Ethynyl-6-[4-methoxy-2-methyl-3-(3,3,6,6-tetramethyl-1,8-dioxo-2,3,4,5,6,7,8,9-octahydro-1H-xanthen-9-yl)phenyl]pyridine-2-carboxylic acid] | – | 31
9 | CCc1ccc(-c2ccc(OC)c(C3C4=C(CC(C)(C)CC4=O)OC4=C3C(=O)CC(C)(C)C4)c2C)nc1C(=O)O [Example 13, 3-Ethyl-6-[4-methoxy-2-methyl-3-(3,3,6,6-tetramethyl-1,8-dioxo-2,3,4,5,6,7,8,9-octahydro-1H-xanthen-9-yl)phenyl]pyridine-2-carboxylic acid] | – | 61
10 | COc1ccc(-c2cccc(C(=O)NS(C)(=O)=O)n2)c(C)c1C1C2=C(CC(C)(C)CC2=O)OC2=C1C(=O)CC(C)(C)C2.[K] [Example 14, 6-[4-Methoxy-2-methyl-3-(3,3,6,6-tetramethyl-1,8-dioxo-2,3,4,5,6,7,8,9-octahydro-1H-xanthen-9-yl)phenyl]-N-(methylsulfonyl)pyridine-2-carboxamide potassium salt] | – | 46
